The values that follow come from article PMC5388737, “Exploring the Role of CYP3A4 Mediated Drug Metabolism in the Pharmacological Modulation of Nitric Oxide Production” (Frontiers in Pharmacology, 2017).

In brackets after ≈: the same amount, converted by molar mass. Where two headings read alike, the source gives them in different places.

Series [1] relates to NO production in LPS stimulated RAW 264.7 macrophages. The series can be described thus: NO production in LPS stimulated RAW 264.7 murine macrophages (Griess assay). The note with it: for IC50: Mus musculus, RAW264.7. The series is classed as cell-based, mouse. Here is the method:
The mouse macrophage cells, RAW264.7 (ATCC® TIB-71™) were obtained from ATCC and cultured in Dulbecco's Modified Eagle Medium (DMEM), supplemented with 10% FBS and 2 mM l-glutamine, in a humidified 5% CO2 atmosphere at 37°C. All cell handling steps were carried out using the SelecT automated cell culture system. RAW264.7 cells were seeded into 96-well plates at a density of 20 × 10^3 cells per well and grown to approximately 50% of confluence (24 h). They were cultured for another 24 h with each of the test compounds described above (5 μL of stock serial dilutions in 20% DMSO were dispensed into 190 μL of fresh medium using Perkin Elmer Evolution P3, Waltham, MA,). Afterwards, these cells were stimulated with LPS (5 μL of 6 μg/mL were dispensed using a Thermo Scientific Multidrop Combi dispenser, MTX Lab Systems, Vienna, VA). Untreated (5 μL of 20% DMSO, compound vehicle) and unstimulated (5 μL of purified water, LPS vehicle) cells were used as negative controls (n = 4) while untreated but stimulated cells were used as positive controls (n = 4) in each assay plate.
Test compound activities were calculated automatically using the Genedata Screener software (Genedata AG, Basel, Switzerland), and the percentage inhibition of each commercial compound was determined by Equation (1), integrated in the Genedata Screener software. Percentage of control of production of nitric oxide was: (1) Percentage of control = (Abswell − Absneg/Abspos − Absneg) ∗ 100 where Abswell is the absorbance measured per specific well; and Abspos and Absneg are the average absorbance measured for the positive (LPS/solvent vehicle) and negative controls (-LPS/solvent vehicle, respectively). […] Dexamethasone was used as positive control standard. All compounds were tested in triplicate (n = 3) in two different days.
A general note: Griess reagent forms a coloured azo dye with nitrite.

A short description of series [2]: In vitro metabolic stability in human liver microsomes. In kind it is in vitro ADME. The note with it: HLM 1 mg/mL, 1 μM substrate, NADPH, read-out: Met. stability T1/2. How it is done: Protein concentration was 1 mg/mL and NADPH was present at 4 mM. Reaction was quenched using an equal volume of AcN and then diluted 1:1 with water prior to analysis by liquid chromatography coupled to high resolution mass spectrometry (LC-HRMS): Chromatography. The incubations were analyzed using an Agilent Series 1290 LC system (Agilent Technologies, Santa Clara, CA, USA). […] Solvent A contained water with 0.1% formic acid and solvent B contained AcN with 0.1% formic acid, and the flow rate was set at 400 μL/min. The gradient elution was performed as follows: 0-0.5 min 0% eluent B; 0.5-7 min 100% eluent B; 7-9 min 100% eluent B; 9-9.2 min 0% eluent B; and 9.2-10.5 min 0% eluent B. High resolution mass spectrometry: AB SCIEX TripleTOF 5600 quadrupole-time-of-flight mass spectrometer (Q-TOF-MS) in positive ESI mode (AB SCIEX, Concord, ON, Canada) was used with a generic method for data acquisition on all compounds and samples. The method consisted of a time of flight mass survey scan (TOF MS), followed by two information-dependent acquisitions (IDA) TOF MS/MS scans. […] An accumulation time of 100 ms was used for each scan. Mass defect triggered IDA was used for the MS/MS scans (collision energy of 35 eV with a spread of ±10 eV). External mass calibration was performed automatically using a calibrant delivery system. Data processing was performed using MultiQuant Software and MetabolitePilot Software (AB SCIEX, Concord, ON, Canada) to process the TOF MS data and generate all quantitative information. An extracted ion current (XIC) window of ±10 mDa was used for all compounds. Peak areas were used to plot the Ln % remaining relative to t = 0.
For orientation: Liver microsomes are vesicles of endoplasmic reticulum, rich in cytochrome P450 enzymes.

Series [3] in a line: Turbidimetric kinetic aqueous solubility (NIVA-CYPI-KS). The series is classed as physicochemical. As to conditions: potassium phosphate buffer, 37 °C, pH 7.4, aqueous buffer, kinetic from dmso stock, potassium phosphate buffer pH 7.4, 2 h, turbidimetry 620 nm. How it is done: (§1) Serial dilutions of test compounds in 100% DMSO were carried out on a Biomek FX workstation coupled with a stacker carrousel (Beckman Coulter Inc. Brea, California). […] Compounds for NO production assessment were also prepared from serial dilutions in 100% DMSO (20 μL) which were combined with water (80 μL).
(§2) Briefly, CYP3A4 inhibition studies were conducted using human recombinant c-DNA expressed CYP3A4 enzymes by quantification of non-fluorescent substrate, 7-benzyloxy-4-(trifluoromethyl) coumarin (BFC) transformation to a fluorescent product (7-HFC), which is mediated by CYP3A4. For aqueous solubility assessment, serial dilutions of test compounds (imidazole derivatives and macrolides) dissolved in DMSO/AcN [35:65] [v/v] (2 μL) were combined with a 180 μL potassium phosphate buffer (pH 7.4) using an Evolution P3 liquid handling station. Then the plates were incubated for 2 h at 37°C to allow slow compound precipitation. Thereafter, absorbance was measured at 620 nm by an EnVision multilabel plate reader. Absorbance signals were used to determine compound solubility limits. Pyrene was used as standard control for precipitation in turbidimetric kinetic solubility determination. […] Finally, reaction product (7-HFC) formation was quantify using florescence measurements. All compounds were tested in triplicate in two different days.

The target in another series is CYP3A4 (Homo sapiens, UniProt P08684). The series is described as follows: in vitro. The note with it: recombinant enzyme, pH 7.4. How it is done: Control samples were prepared in the absence of test compounds by the addition of solvent alone.
Sequence of CYP3A4 (P08684 whole entry): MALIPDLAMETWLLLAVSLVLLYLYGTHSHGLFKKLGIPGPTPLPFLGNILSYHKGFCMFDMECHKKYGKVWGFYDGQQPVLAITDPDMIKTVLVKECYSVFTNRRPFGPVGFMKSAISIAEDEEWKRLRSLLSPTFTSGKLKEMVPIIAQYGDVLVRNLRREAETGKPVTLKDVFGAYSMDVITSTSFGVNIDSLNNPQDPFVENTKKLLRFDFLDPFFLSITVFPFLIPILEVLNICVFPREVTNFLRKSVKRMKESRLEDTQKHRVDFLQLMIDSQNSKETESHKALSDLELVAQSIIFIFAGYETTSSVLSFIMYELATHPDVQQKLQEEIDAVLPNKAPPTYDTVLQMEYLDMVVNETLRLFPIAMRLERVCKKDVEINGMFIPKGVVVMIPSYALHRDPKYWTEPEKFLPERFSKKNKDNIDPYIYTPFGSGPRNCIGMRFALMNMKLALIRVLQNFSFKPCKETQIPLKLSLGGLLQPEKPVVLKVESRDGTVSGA
Briefly, the observed inactivation rate constant at each macrolide concentration was calculated from the initial slopes of the remaining enzyme activity, plotted semi-logarithmically against the pre-incubation time. Non-linear regression analysis of the negative slopes against inhibitor concentration enables Kinact and KI to be calculated. […] All compounds were tested in triplicate in two different days for every methodology studied. […].

Series [4] addresses human recombinant c-DNA expressed CYP3A4 (Homo sapiens, UniProt P08684). The series is described as follows: CYP3A4 reversible inhibition (NIVA-CYPI-KS, BFC substrate). Here is the method:
as §1, §2

The nature of series [5]: RXT metabolite profile in HLM incubations (LC-HRMS). The series is classed as in vitro ADME, human. As to conditions: RXT incubation with HLM; peak area of [M+H]+ ion. Here is the method:
Test compounds (ERY, RXT, CLT, and AZT) were incubated in HLM at an initial substrate concentration of 1 μM in a 96-well format. Standard high-throughput incubation conditions were used with time points of 0, 15, 30, 45, 60, and 90 min. Protein concentration was 1 mg/mL and NADPH was present at 4 mM. Reaction was quenched using an equal volume of AcN and then diluted 1:1 with water prior to analysis by liquid chromatography coupled to high resolution mass spectrometry (LC-HRMS): Chromatography. The incubations were analyzed using an Agilent Series 1290 LC system (Agilent Technologies, Santa Clara, CA, USA). All analyses were performed using a Supelco Discovery HS C18 (2.1 × 50 mm) 3 μm column that was held at 30°C. Solvent A contained water with 0.1% formic acid and solvent B contained AcN with 0.1% formic acid, and the flow rate was set at 400 μL/min. The gradient elution was performed as follows: 0–0.5 min 0% eluent B; 0.5–7 min 100% eluent B; 7–9 min 100% eluent B; 9–9.2 min 0% eluent B; and 9.2–10.5 min 0% eluent B. High resolution mass spectrometry: AB SCIEX TripleTOF 5600 quadrupole-time-of-flight mass spectrometer (Q-TOF-MS) in positive ESI mode (AB SCIEX, Concord, ON, Canada) was used with a generic method for data acquisition on all compounds and samples. The method consisted of a time of flight mass survey scan (TOF MS), followed by two information-dependent acquisitions (IDA) TOF MS/MS scans. The mass range was m/z 100–1,000 for both MS and MS/MS. An accumulation time of 100 ms was used for each scan. Mass defect triggered IDA was used for the MS/MS scans (collision energy of 35 eV with a spread of ±10 eV). External mass calibration was performed automatically using a calibrant delivery system. Data processing was performed using MultiQuant Software and MetabolitePilot Software (AB SCIEX, Concord, ON, Canada) to process the TOF MS data and generate all quantitative information. An extracted ion current (XIC) window of ±10 mDa was used for all compounds. […]

Series [6] has as its system primary cultures of alveolar rat macrophages. Details: method as in Tamaoki et al., 1999; Kohri et al., 2000. The note with it: ref Tamaoki et al., 1999, Kohri et al., 2000; cited from earlier work.
[7] abbreviates: LPS stimulated RAW 264.7, 24 h, concentrations with viability <80% rejected, read-out: NO production IC50.
[8] abbreviates: read-out: Solubility Range Lower bound.
[9] abbreviates: read-out: Solubility Range Upper bound.
Where [10] appears, read: inferred from relative composition of the RXT metabolite mixture, read-out: inferred IC50 for inactivation of NO production.

Sequence of human recombinant c-DNA expressed CYP3A4 (P08684 whole entry): as above

The IC50 is the concentration that gives 50% inhibition. The solubility is the dissolved amount per volume that the medium holds. Turning to `CC[C@H]1OC(=O)[C@H](C)[C@@H](O[C@H]2C[C@@](C)(OC)[C@@H](O)[C@H](C)O2)[C@H](C)[C@@H](O[C@@H]2O[C@H](C)C[C@H](N(C)C)[C@H]2O)[C@](C)(O)C[C@@H](C)CN(C)[C@H](C)[C@@H](O)[C@]1(C)O` [Azithromycin], in series [1] (250 μM (highest noncytotoxic dose), LPS stimulated RAW 264.7), the “NO production, percentage of control” value is 53.82 % of control. The half-maximal inhibitory concentration (IC50) in series [1] (setting [7]) was > 250 µM. Moreover, the half-life at 1 μM in series [2] was > 60 min. The solubility at 2 h in series [3] (setting [8]) and in series [3] (setting [9]) was > 86 µM each time.
In the case of `CC[C@H]1OC(=O)[C@H](C)[C@@H](O[C@H]2C[C@@](C)(OC)[C@@H](O)[C@H](C)O2)[C@H](C)[C@@H](O[C@@H]2O[C@H](C)C[C@H](N(C)C)[C@H]2O)[C@](C)(OC)C[C@@H](C)C(=O)[C@H](C)[C@@H](O)[C@]1(C)O` [Claritromycin, clarithromycin], in series [1] (62.5 μM (highest noncytotoxic dose), LPS stimulated RAW 264.7), the “NO production, percentage of control” value came to 85.2%. Further, the half-maximal inhibitory concentration (IC50) in series [1] (setting [7]) is > 62.5 µM. For the same molecule, the half-life at 1 μM in series [2] worked out at 50.6 min. In addition, the solubility at 2 h in series [3] (setting [8]) and in series [3] (setting [9]) was > 86 µM throughout. Moreover, the “CYP3A4 TDI KI” value on CYP3A4 was found to be 2.68 µM.
Turning to `Clc1ccccc1C(c1ccccc1)(c1ccccc1)n1ccnc1` [Clotrimazole, clotrimazole], the solubility at 2 h in series [3] (setting [8]) is 2.59 µM (≈ 0.893 µg/mL); in series [3] (setting [9]), 10.3 µM (≈ 3.57 µg/mL).
Regarding `C[C@@H]1C[C@H]2[C@@H]3CCC4=CC(=O)C=C[C@]4(C)[C@@]3(F)[C@@H](O)C[C@]2(C)[C@@]1(O)C(=O)CO` [Dexamethasone], the IC50 in series [1] (setting [7]) is 0.00721 µM.
As to `CC[C@H]1OC(=O)[C@H](C)[C@@H](O[C@H]2C[C@@](C)(OC)[C@@H](O)[C@H](C)O2)[C@H](C)[C@@H](O[C@@H]2O[C@H](C)C[C@H](N(C)C)[C@H]2O)[C@](C)(O)C[C@@H](C)C(=O)[C@H](C)[C@@H](O)[C@]1(C)O` [Erythromycin, erythromycin], the half-maximal inhibitory concentration (IC50) was > 250 µM in series [1] (setting [7]) and 3.21 µM in series [4]. The half-life at 1 μM in series [2] was determined as 21.7 min. Also, the solubility at 2 h in series [3] (setting [8]) and in series [3] (setting [9]) was > 86 µM in each case.
As to `CC(=O)N1CCN(c2ccc(OCC3COC(Cn4ccnc4)(c4ccc(Cl)cc4Cl)O3)cc2)CC1` (stereo not drawn) [Ketoconazole, ketoconazole], the half-maximal inhibitory concentration (IC50) in series [1] (setting [7]) was > 10 µM.
On to `CCC1OC(=O)C(C)C(OC2CC(C)(OC)C(O)C(C)O2)C(C)C(OC2OC(C)CC(N(C)C)C2O)C(C)(O)CC(C)C(=NO)C(C)C(O)C1(C)O` (stereo not drawn) [M1, ERY oxime], for which the half-inhibitory concentration (IC50) in series [1] (setting [10]) stood at 23.1 µg/mL. Further, the “Area (%) relative content of parent and metabolites” value in series [5] is listed as 20%.
Taken in the same sequence, the figures for `CCC1OC(=O)C(C)C(OC2CC(C)(OC)C(O)C(C)O2)C(C)C(OC2OC(C)CC(NC)C2O)C(C)(O)CC(C)C(=NO)C(C)C(O)C1(C)O` (stereo not drawn) [M5, Demethylated ERY oxime] were 4.74 µg/mL and 2%.
As for `Clc1ccc(COC(Cn2ccnc2)c2ccc(Cl)cc2Cl)c(Cl)c1` (stereo not drawn) [Miconazole, miconazole], the figures for the solubility at 2 h in series [3] (setting [8]) and in series [3] (setting [9]) were 8.62 µM (≈ 3.59 µg/mL) and 34.5 µM (≈ 14.3 µg/mL), respectively.
One may read the kinact as the rate constant of inactivation at saturating inhibitor. With `CC[C@H]1OC(=O)[C@H](C)[C@@H](O[C@H]2C[C@@](C)(OC)[C@@H](O)[C@H](C)O2)[C@H](C)[C@@H](O[C@@H]2O[C@H](C)C[C@H](N(C)C)[C@H]2O)[C@](C)(O)C[C@@H](C)/C(=N\OCOCCOC)[C@H](C)[C@@H](O)[C@]1(C)O` [Roxythromycin, (E)-ERY-9-[O-[(2-methoxyethoxy)methyl]oxime]], the results for the IC50 in series [1] (setting [7]) and in series [4] were > 250 µM and 6.41 µM, respectively. In addition, the “inactivation of NO production” value in series [1] (from 0.488 to 250 μM, LPS stimulated RAW 264.7) is reported as “no inactivation at all”. The half-life at 1 μM in series [2] was 38.1 min. In series [5], the “Area (%) relative content of parent and metabolites” value stood at 65%. Besides, the solubility at 2 h in series [3] (setting [8]) and in series [3] (setting [9]) was > 86 µM throughout. For the same molecule, on CYP3A4, the “CYP3A4 TDI KI” value was determined as 0.29 µM. Besides, the maximal inactivation rate constant (kinact) on CYP3A4 was 0.000715 s⁻¹. Moreover, the “IC50 in NO production” value in series [6] is 5 µg/mL (≈ 5.97 µM).
